Where two headings read alike, the source gives them in different places.
Test: Pharmacokinetic evaluation in humans
Assay type: in vivo
Conditions: human; for CL renal: plasma and urine; for AUC(0-inf) / clearance / Cmax / Vd / half-life / AUC(0-t): plasma
Experimental: Plasma and urine RLip-EA-OH concentrations were measured at BASi, Inc. (West Lafayette, Ind.) using a LC/MS/MS method with positive turbo ion spray, in the multiple reaction-monitoring mode. The quantifiable range for human plasma was 1.00 to 500 ng/mL and QC samples were included at 3.00, 75.0 and 375 ng/mL.
The PK population included subjects who received RLip-EA-OH and had ≧1 post-dose PK measurement. […] Plasma samples from 24 subjects (6 RLip-EA-OH subjects per cohort) were analyzed (Tables 16 and 17).

Question: For `C[C@H](NC(=O)[C@H](CCC(=O)O)NC(=O)CCCC[C@@H]1CCSS1)C(=O)O` [RLip-EA-OH, N-(R)-lipoyl-L-glutamyl-L- alanine], which CL renal (20 mg, noncompartmental, read-out: Renal clearance, Mean (SD) (converted)) is on record?
Answer: The CL renal was 168 mL/min.

Question: What about the CL renal (20 mg, noncompartmental, read-out: Renal clearance, Median (converted)) of the same compound?
Answer: The CL renal was 186 mL/min.

Question: What about the CL renal (20 mg, noncompartmental, read-out: Renal clearance, Minimum, maximum) of the same compound?
Answer: The CL renal was 80.8 to 255 mL/min.

Question: What about the CL renal (60 mg, noncompartmental, read-out: Renal clearance, Mean (SD) (converted)) of the same compound?
Answer: The CL renal was 181 mL/min.

Question: What about the CL renal (60 mg, noncompartmental, read-out: Renal clearance, Median (converted)) of the same compound?
Answer: Its CL renal is 188 mL/min.

Question: And the CL renal (60 mg, noncompartmental, read-out: Renal clearance, Minimum, maximum)?
Answer: The CL renal was 135 to 220 mL/min.

Question: And the CL renal (150 mg, noncompartmental, read-out: Renal clearance, Mean (SD) (converted))?
Answer: Its CL renal is 124 mL/min.

Question: What about the CL renal (150 mg, noncompartmental, read-out: Renal clearance, Median (converted)) of the same compound?
Answer: Its CL renal is 98 mL/min.

Question: What about the CL renal (150 mg, noncompartmental, read-out: Renal clearance, Minimum, maximum) of the same compound?
Answer: Its CL renal is 58.5 to 243 mL/min.

Question: What about the CL renal (300 mg, noncompartmental, read-out: Renal clearance, Mean (SD) (converted)) of the same compound?
Answer: The CL renal was 141 mL/min.

Question: What about the CL renal (300 mg, noncompartmental, read-out: Renal clearance, Median (converted)) of the same compound?
Answer: Its CL renal is 140 mL/min.

Question: What about the CL renal (300 mg, noncompartmental, read-out: Renal clearance, Minimum, maximum) of the same compound?
Answer: Its CL renal is 85.2 to 200 mL/min.

Question: And the AUC(0-inf) (20 mg, compartmental, read-out: AUCinf, Mean (SD))?
Answer: The AUC(0-inf) was 621 ng·h/mL.

Question: What about the AUC(0-inf) (20 mg, compartmental, read-out: AUCinf, Median) of the same compound?
Answer: Its AUC(0-inf) is 614 ng·h/mL.

Question: What about the AUC(0-inf) (20 mg, compartmental, read-out: AUCinf, Minimum, maximum) of the same compound?
Answer: The AUC(0-inf) was 474 to 787 ng·h/mL.

Question: And the clearance (20 mg, compartmental, read-out: CL, Mean (SD) (converted))?
Answer: Its clearance is 557 mL/min.

Question: What about the clearance (20 mg, compartmental, read-out: CL, Median (converted)) of the same compound?
Answer: Its clearance is 545 mL/min.

Question: What about the clearance (20 mg, compartmental, read-out: CL, Minimum, maximum) of the same compound?
Answer: The clearance was 423 to 703 mL/min.

Question: And the Cmax (20 mg, compartmental, read-out: Estimated Cmax, Mean (SD))?
Answer: The Cmax was 2360 ng/mL.

Question: What about the Cmax (20 mg, compartmental, read-out: Estimated Cmax, Median) of the same compound?
Answer: Its Cmax is 2480 ng/mL.

Question: What about the Cmax (20 mg, compartmental, read-out: Estimated Cmax, Minimum, maximum) of the same compound?
Answer: The Cmax was 1360 to 3340 ng/mL.

Question: What about the Vd (20 mg, compartmental, read-out: Vss, Mean (SD)) of the same compound?
Answer: Its Vd is 16 L.

Question: What about the Vd (20 mg, compartmental, read-out: Vss, Median) of the same compound?
Answer: Its Vd is 16 L.

Question: What about the Vd (20 mg, compartmental, read-out: Vss, Minimum, maximum) of the same compound?
Answer: Its Vd is 11 to 20 L.

Question: And the half-life (20 mg, compartmental, read-out: t1/2, Mean (SD) (converted))?
Answer: The half-life was 1 h.

Question: And the half-life (20 mg, compartmental, read-out: t1/2, Median (converted))?
Answer: Its half-life is 0.8 h.

Question: What about the half-life (20 mg, compartmental, read-out: t1/2, Minimum, maximum) of the same compound?
Answer: Its half-life is 0.6 to 1.6 h.

Question: What about the AUC(0-t) (20 mg, noncompartmental, read-out: AUC0-t, Mean (SD)) of the same compound?
Answer: Its AUC(0-t) is 581 ng·h/mL.

Question: And the AUC(0-t) (20 mg, noncompartmental, read-out: AUC0-t, Median)?
Answer: Its AUC(0-t) is 556 ng·h/mL.

Question: And the AUC(0-t) (20 mg, noncompartmental, read-out: AUC0-t, Minimum, maximum)?
Answer: The AUC(0-t) was 466 to 717 ng·h/mL.

Question: And the AUC(0-inf) (20 mg, noncompartmental, read-out: AUCinf, Mean (SD))?
Answer: The AUC(0-inf) was 583 ng·h/mL.

Question: And the AUC(0-inf) (20 mg, noncompartmental, read-out: AUCinf, Median)?
Answer: Its AUC(0-inf) is 558 ng·h/mL.

Question: And the AUC(0-inf) (20 mg, noncompartmental, read-out: AUCinf, Minimum, maximum)?
Answer: The AUC(0-inf) was 467 to 718 ng·h/mL.

Question: And the clearance (20 mg, noncompartmental, read-out: CL, Mean (SD) (converted))?
Answer: The clearance was 588 mL/min.

Question: What about the clearance (20 mg, noncompartmental, read-out: CL, Median (converted)) of the same compound?
Answer: The clearance was 598 mL/min.

Question: And the clearance (20 mg, noncompartmental, read-out: CL, Minimum, maximum)?
Answer: Its clearance is 465 to 713 mL/min.

Question: What about the Cmax (20 mg, noncompartmental, read-out: Cmax, Mean (SD)) of the same compound?
Answer: The Cmax was 1830 ng/mL.

Question: What about the Cmax (20 mg, noncompartmental, read-out: Cmax, Median) of the same compound?
Answer: The Cmax was 1840 ng/mL.

Question: And the Cmax (20 mg, noncompartmental, read-out: Cmax, Minimum, maximum)?
Answer: Its Cmax is 1220 to 2420 ng/mL.

Question: And the Vd (20 mg, noncompartmental, read-out: Vss, Mean (SD))?
Answer: The Vd was 18.5 L.

Question: What about the Vd (20 mg, noncompartmental, read-out: Vss, Median) of the same compound?
Answer: Its Vd is 18.7 L.

Question: And the Vd (20 mg, noncompartmental, read-out: Vss, Minimum, maximum)?
Answer: The Vd was 14.4 to 22.4 L.

Question: What about the half-life (20 mg, noncompartmental, read-out: t1/2, Mean (SD) (converted)) of the same compound?
Answer: Its half-life is 0.86 h.

Question: What about the half-life (20 mg, noncompartmental, read-out: t1/2, Median (converted)) of the same compound?
Answer: Its half-life is 0.76 h.

Question: What about the half-life (20 mg, noncompartmental, read-out: t1/2, Minimum, maximum) of the same compound?
Answer: The half-life was 0.61 to 1.41 h.

Question: And the clearance (20 mg, read-out: CL (converted))?
Answer: The clearance was 588 mL/min.

Question: What about the AUC(0-inf) (60 mg, compartmental, read-out: AUCinf, Mean (SD)) of the same compound?
Answer: Its AUC(0-inf) is 2260 ng·h/mL.

Question: What about the AUC(0-inf) (60 mg, compartmental, read-out: AUCinf, Median) of the same compound?
Answer: Its AUC(0-inf) is 1910 ng·h/mL.

Question: What about the AUC(0-inf) (60 mg, compartmental, read-out: AUCinf, Minimum, maximum) of the same compound?
Answer: Its AUC(0-inf) is 1770 to 3160 ng·h/mL.

Question: What about the clearance (60 mg, compartmental, read-out: CL, Mean (SD) (converted)) of the same compound?
Answer: Its clearance is 467 mL/min.

Question: And the clearance (60 mg, compartmental, read-out: CL, Median (converted))?
Answer: Its clearance is 523 mL/min.

Question: What about the clearance (60 mg, compartmental, read-out: CL, Minimum, maximum) of the same compound?
Answer: Its clearance is 317 to 565 mL/min.

Question: What about the Cmax (60 mg, compartmental, read-out: Estimated Cmax, Mean (SD)) of the same compound?
Answer: The Cmax was 6870 ng/mL.

Question: And the Cmax (60 mg, compartmental, read-out: Estimated Cmax, Median)?
Answer: Its Cmax is 6290 ng/mL.

Question: What about the Cmax (60 mg, compartmental, read-out: Estimated Cmax, Minimum, maximum) of the same compound?
Answer: The Cmax was 5520 to 9050 ng/mL.

Question: What about the Vd (60 mg, compartmental, read-out: Vss, Mean (SD)) of the same compound?
Answer: Its Vd is 14 L.

Question: What about the Vd (60 mg, compartmental, read-out: Vss, Median) of the same compound?
Answer: Its Vd is 15 L.

Question: And the Vd (60 mg, compartmental, read-out: Vss, Minimum, maximum)?
Answer: The Vd was 10 to 17 L.

Question: What about the half-life (60 mg, compartmental, read-out: t1/2, Mean (SD) (converted)) of the same compound?
Answer: Its half-life is 1.5 h.

Question: And the half-life (60 mg, compartmental, read-out: t1/2, Median (converted))?
Answer: Its half-life is 1.4 h.

Question: What about the half-life (60 mg, compartmental, read-out: t1/2, Minimum, maximum) of the same compound?
Answer: The half-life was 1.1 to 2.6 h.

Question: And the AUC(0-t) (60 mg, noncompartmental, read-out: AUC0-t, Mean (SD))?
Answer: Its AUC(0-t) is 2250 ng·h/mL.

Question: And the AUC(0-t) (60 mg, noncompartmental, read-out: AUC0-t, Median)?
Answer: Its AUC(0-t) is 1980 ng·h/mL.

Question: And the AUC(0-t) (60 mg, noncompartmental, read-out: AUC0-t, Minimum, maximum)?
Answer: The AUC(0-t) was 1720 to 3110 ng·h/mL.

Question: What about the AUC(0-inf) (60 mg, noncompartmental, read-out: AUCinf, Mean (SD)) of the same compound?
Answer: The AUC(0-inf) was 2260 ng·h/mL.

Question: And the AUC(0-inf) (60 mg, noncompartmental, read-out: AUCinf, Median)?
Answer: The AUC(0-inf) was 1980 ng·h/mL.

Question: What about the AUC(0-inf) (60 mg, noncompartmental, read-out: AUCinf, Minimum, maximum) of the same compound?
Answer: The AUC(0-inf) was 1720 to 3110 ng·h/mL.

Question: What about the clearance (60 mg, noncompartmental, read-out: CL, Mean (SD) (converted)) of the same compound?
Answer: The clearance was 467 mL/min.

Question: And the clearance (60 mg, noncompartmental, read-out: CL, Median (converted))?
Answer: Its clearance is 505 mL/min.

Question: What about the clearance (60 mg, noncompartmental, read-out: CL, Minimum, maximum) of the same compound?
Answer: Its clearance is 322 to 582 mL/min.

Question: And the Cmax (60 mg, noncompartmental, read-out: Cmax, Mean (SD))?
Answer: The Cmax was 6560 ng/mL.

Question: What about the Cmax (60 mg, noncompartmental, read-out: Cmax, Median) of the same compound?
Answer: Its Cmax is 6840 ng/mL.

Question: What about the Cmax (60 mg, noncompartmental, read-out: Cmax, Minimum, maximum) of the same compound?
Answer: The Cmax was 5190 to 7990 ng/mL.

Question: And the Vd (60 mg, noncompartmental, read-out: Vss, Mean (SD))?
Answer: The Vd was 14.9 L.

Question: And the Vd (60 mg, noncompartmental, read-out: Vss, Median)?
Answer: The Vd was 14.8 L.

Question: What about the Vd (60 mg, noncompartmental, read-out: Vss, Minimum, maximum) of the same compound?
Answer: Its Vd is 11.3 to 18.6 L.

Question: What about the half-life (60 mg, noncompartmental, read-out: t1/2, Mean (SD) (converted)) of the same compound?
Answer: Its half-life is 1.21 h.

Question: And the half-life (60 mg, noncompartmental, read-out: t1/2, Median (converted))?
Answer: The half-life was 1.26 h.

Question: And the half-life (60 mg, noncompartmental, read-out: t1/2, Minimum, maximum)?
Answer: Its half-life is 0.84 to 1.5 h.

Question: What about the AUC(0-inf) (150 mg, compartmental, read-out: AUCinf, Mean (SD)) of the same compound?
Answer: The AUC(0-inf) was 7030 ng·h/mL.

Question: And the AUC(0-inf) (150 mg, compartmental, read-out: AUCinf, Median)?
Answer: The AUC(0-inf) was 6920 ng·h/mL.

Question: What about the AUC(0-inf) (150 mg, compartmental, read-out: AUCinf, Minimum, maximum) of the same compound?
Answer: The AUC(0-inf) was 4890 to 9610 ng·h/mL.

Question: And the clearance (150 mg, compartmental, read-out: CL, Mean (SD) (converted))?
Answer: Its clearance is 370 mL/min.
